Laboratory results from US11547677B2, “Transmucosal delivery system for idebenone” (LTS LOHMANN THERAPIE-SYSTEME AG, priority 2017, dated 2023).
Structures can show the parent of a compound that is named as a salt.

Experiments:
[1] = n-octanol/water; cited from earlier work
[2] = oral administration; cited from earlier work
[3] = Saturation concentration of idebenone in the inner, hydrophobic, phase (HPLC of supernatant); format: physicochemical; details: in composition of the 2nd table (vitamin E, Polysorbate 80, methyl salicylate, eucalyptol, tributyl citrate, Brij S2)
Method: Idebenone is added in excess to the inner, hydrophobic, phase, so that even after relatively long stirring solid dregs of active ingredient are still present. Then the dregs are removed by centrifuging. The resulting supernatant contains idebenone in its saturation concentration. This is determined by analysis for example by means of HPLC. The saturation concentration of idebenone for an exemplified composition according to the invention was determined as follows. [table]

Row | SMILES | LogP [1] | idebenone metabolised in the first-pass metabolism [2] | saturation concentration ([3]; 4° C.) [g/L] | saturation concentration ([3]; room temperature) [g/L]
1 | COC(=O)c1ccccc1O [MS, methyl salicylate] | LogP = 2.24 | – | – | –
2 | CC12CCC(CC1)C(C)(C)O2 [EUC, eucalyptol] | LogP = 2.8 | – | – | –
3 | COC1=C(OC)C(=O)C(CCCCCCCCCCO)=C(C)C1=O [idebenone, 2-(10-hydroxydecyl)-5,6-dimethoxy-3-methyl-cyclohexa-2,5-diene-1,4-dione] | – | more than 98% | 103 | 145
4 | CCCCOC(=O)CC(O)(CC(=O)OCCCC)C(=O)OCCCC [TBC, tributyl citrate] | LogP = 4.7 | – | – | –
